# Laboratory results as given in patent publication US20100330029A1, “Cancer Treatments with Radiation and Immunocytokines” (Merck Patent GmbH, priority 2008, published 2010).
# Key:
# Format in all cases: in vivo, mice
# CT26/KSA colon carcinoma = test: tumor growth assay, CT26/KSA model; details: Experiments CT26-1-3; 3 or 4 Gy day 0 followed by EMD521873 5 mg/kg i.v. days 2, 3, 4
# Description: CT26 cells, a murine colon epithelial cell line derived by intrarectal injection of N-nitroso-N-methylurethane in BALB/C mice, were transfected to express the human KS antigen (KSA or EpCAM) that was cloned by PCR and expressed in parental cells using a retroviral vector (Gillies 1998). CT26/KSA cells were maintained in DMEM, supplemented with 10% heat inactivated fetal bovine serum, L-glutamine, vitamins, sodium pyruvate, non-essential amino acids, penicillin/streptomycin and Geneticin® (G418) (Life Technologies, Inc.) at 37° C. and 7% CO2. G418 was added to maintain KSA expression. CT26 and CT26/KSA cells were implanted in female BALB/C mice.
# For the tumor growth assay, cells growing exponentially in culture were injected as a single cell suspension in 100 μl of PBS intramuscularly into the upper legs of the mice. […] Thereafter, animal survival was monitored. […] Mice were treated on days 0 to 6 and day 17, and tumor size was measured twice weekly for the duration of the study.
# (§1) Tumors were measured with calipers in three dimensions for the duration of the experiment. Tumor volumes were calculated using the equation: […]
# The effect of a single dose of radiation given on day 0 followed by i.v. dosing of the immunocytokine (5 mg/kg) was evaluated in three subcutaneous syngeneic tumor models (CT26 colon carcinoma, CT26/KSA colon carcinoma which expresses human EpCAM, and B16 melanoma). […]
# B16 melanoma = test: tumor growth assay, B16 model; details: Experiment B16-1; 10 Gy d0 followed by i.v. EMD521873 days 3, 4, 5
# Procedure: B16 cells, a murine melanoma cell line, were maintained in RPMI 1640, supplemented with 10% heat inactivated fetal bovine serum, L-glutamine, sodium pyruvate, non-essential amino acids, penicillin/streptomycin (Life Technologies, Inc.) at 37° C. and 7% CO2. B16 cells were implanted in female C57BL/6 mice.
# For the tumor growth assay, cells growing exponentially in culture were injected as a single cell suspension in 100 μl of PBS intramuscularly into the upper legs of the mice. In experiments using a dual tumor model, cells were also implanted in the flanks of the mice. After tumors had become established, treatment was initiated (day 0). In Experiment LLC-7, tumors were implanted in the flank until established. Mice were treated on days 0 to 9, then, on day 12, tumors were excised using survival surgery. Thereafter, animal survival was monitored. […] Mice were treated on days 0 to 6 and day 17, and tumor size was measured twice weekly for the duration of the study.
# as §1
# In addition, there was a moderate, but significant increase in certain immune response markers in the tumor as measured by immune marker gene expression profiles with CD25, TNFA, TYROBP, ICOS and CD45 being modulated >4-fold compared to either therapy alone.
# [1] = tested on: immune markers in LLC tumors; test: immune gene expression profiling of LLC tumors; details: for CD3 gene expression increase / CD8 gene expression increase / CISH gene expression increase / CXCL9 gene expression increase / IFNg gene expression increase: LLC-6; for CD3 gene expression increase: EMD521873+chemoradiation vs EMD521873 or chemoradiation alone; for CD8 gene expression increase / CISH gene expression increase / CXCL9 gene expression increase / IFNg gene expression increase: EMD521873+chemoradiation vs either alone
# Procedure: Gene profiling of tumors was analyzed using excised tumor tissues placed in RNAlater® RNA stabilizing reagent upon harvest. Total RNA was prepared with an RNeasy® kit (Qiagen) and cDNA was prepared with the Superscript® III kit for qPCR (Life Technologies, Inc.). qPCR reactions were performed on an ABI7500 instrument in a standardized fashion and relative changes in gene expression were analyzed using the ddCt method (efficiency factor 95%). Housekeeping genes used for comparison included ACTB, B2M and HPRT1.
# [2] = tested on: CD8 cell infiltration in tumors; test: immunohistochemical analysis of CD8 cell infiltration in LLC tumors; details: Experiment LLC-6; combination compared to the monotherapies
# Procedure: (§2) In another experiment, LLC tumors were established subcutaneously in both the leg and flank of the same animal. Animals were then treated with either cisplatin (4 mg/kg, d0) plus fractionated radiation given to the leg tumor (3.6 Gy/d, d0-4), i.v. EMD521873 alone (5 mg/kg, d7, 8, 9), or the combination of EMD521873 plus chemoradiation (Experiment LLC-6). Tumor growth and immune response in both the irradiated leg tumor and the non-irradiated flank tumor were monitored. […] CD8 effector cells were increased by approximately 4-fold in the blood with the combination compared to either chemoradiation or EMD521873 alone.
# [3] = tested on: CD8 effector cells in the blood; test: FACS analysis of blood, LLC dual tumor model; details: Experiment LLC-6; combination compared to either chemoradiation or EMD521873 alone
# Procedure: Immune effector cell populations in blood were analyzed by FACS. Blood was collected from the retro-orbital sinus of each mouse. Red blood cells were eliminated using lysis buffer. After blocking with rat IgG (1:50), samples were incubated with a 7-color cocktail of antibodies against CD4, CD8, CD25, CD44, CD62L, CD11b, and DX5. Samples were run on a FacsARIA and analyzed for various cell subpopulations.
# as §2
# [4] = LLC-13, radiation in the 2 weeks prior to EMD521873
# [5] = LLC-13, radiation in the first week followed by EMD521873
substance,measurement,setting,value
dI-NHS76γ2(h)(FN>AQ)-ala-IL2(D20T) [EMD521873],anti-tumor effect (complete regressions),CT26/KSA colon carcinoma,a majority of the animals achieved complete regressions
same,anti-tumor activity,B16 melanoma,greater anti-tumor activity compared to either treatment alone
same,"gene expression profiling, panel of immune markers","[1]; Experiments LLC-1, LLC-2, radiation plus EMD521873 compared to either alone","increases in markers for T cell, T cell activation, lymphocyte trafficking, and Th1 response"
same,CD3 gene expression increase,[1]; flank tumor (non-irradiated),8 fold
same,CD8 gene expression increase,[1]; flank tumor,3.5 fold
same,CISH gene expression increase,[1]; flank tumor,3.2 fold
same,CXCL9 gene expression increase,[1]; flank tumor,14 fold
same,IFNg gene expression increase,[1]; flank tumor,7 fold
same,CD3 gene expression increase,[1]; leg tumor (irradiated),> 20 fold
same,CD8 gene expression increase,[1]; leg tumor,10 fold
same,CISH gene expression increase,[1]; leg tumor,5.8 fold
same,CXCL9 gene expression increase,[1]; leg tumor,10.5 fold
same,IFNg gene expression increase,[1]; leg tumor,14 fold
same,"12 immune expression markers (GZMB, PDCD1, NKG7, NKG2D, CD3G, ITGAL, CD122, CD8A, FASL, CTLA4, INOS, CD25) upregulated","[1]; LLC-8, LLC-9, EMD521873 plus chemoradiation relative to the maximal level achieved in the monotherapies",3 to 6 times
same,immune gene response profile,"[1]; LLC-11, EMD521873 followed by radiation, compared to EMD521873 or either radiation regimen alone",not significantly affected
same,immune response in the tumor (immune gene profiling),"[1]; LLC-12, EMD521873 during the 2nd week of a 3 week course of radiation vs 1 week or 2 week course",blunted
same,CD3 fold-induction compared to untreated control,[1]; [4],~14 fold
same,CD8 fold-induction compared to untreated control,[1]; [4],~6 fold
same,CD25 fold-induction compared to untreated control,[1]; [4],~22 fold
same,IFNγ fold-induction compared to untreated control,[1]; [4],~10 fold
same,granzyme fold-induction compared to untreated control,[1]; [4],~2 fold
same,perforin fold-induction compared to untreated control,[1]; [4],~5 fold
same,immune response gene profile in the tumor,"[1]; LLC-13, radiation in the 3 weeks prior to EMD521873",nearly complete abrogation of the immune response
same,CD3 fold-induction compared to untreated control,[1]; [5],~50 fold
same,CD8 fold-induction compared to untreated control,[1]; [5],~19 fold
same,CD25 fold-induction compared to untreated control,[1]; [5],~45 fold
same,IFNγ fold-induction compared to untreated control,[1]; [5],~22 fold
same,granzyme fold-induction compared to untreated control,[1]; [5],~22 fold
same,perforin fold-induction compared to untreated control,[1]; [5],~8 fold
same,"CD8 cell infiltration enhanced, irradiated lesion",[2],9 fold
same,"CD8 cell infiltration enhanced, non-irradiated lesion",[2],3.5 fold
same,CD8 effector cells increased in the blood,[3],approximately 4 fold
